Laboratory results taken from article PMC10560236, “A protein kinase C α and β inhibitor blunts hyperphagia to halt renal function decline and reduces adiposity in a rat model of obesity-driven type 2 diabetes” (Scientific Reports, 2023).

Experiments:
[1] = test system: intact glomeruli isolated from SD rats; test: PMA-luminol ROS assay in intact glomeruli; type: cell-based; conditions: intact SD rat glomeruli, 16 μM PMA, luminol luminescence; read-out: IC50, PMA-induced ROS production (change in velocity)
Protocol: For the phorbol 12-myristate 13-acetate (PMA)-luminol assay, glomeruli isolated from PBS-perfused kidneys were diluted in an HBSS solution containing 1 mM luminol, 0.1 M HEPES, and 0.1% fatty-acid free BSA. Approximately 3000 glomeruli were plated per well in a 96-well white OPTI-plate (Perkin Elmer 6005290). The reaction was started by the addition of PMA to a final concentration of 16 μM in the absence or presence of increasing Cmpd 1. Luminol luminescence was read on an Envision plate reader in kinetic read mode.

panel of 119 kinases = test: Kinome selectivity profiling; type: biochemical; conditions: 1 μM Cmpd 1, panel of 119 kinases
Protocol: (§1) Half maximal inhibitory concentrations of Cmpd 1 were determined by Z’-Lyte biochemical assays (Life Technologies SelectScreen™ Kinase Profiling Services, Thermo Fisher Scientific). Kinome selectivity was determined at 1 μM Cmpd 1 concentration against a panel of 119 kinases. The original kinome tree in Fig. 1b was taken from Ref.[68].

[2] = biological target: PKC activity in glomerular lysates from ZSF1 obese rats; test: Radioactive pan-PKC kinase assay with glomerular lysates; type: biochemical, rat; conditions: glomerular lysates from 20-week old ZSF1 obese rats, pan-PKC pseudo-substrate peptide
Protocol: Glomeruli were isolated using an established protocol of serially sieving minced kidney cortex tissue through mesh filters of decreasing pore size[69]. For radioactive pan-PKC assays, glomeruli were lysed in a buffer consisting of 50 mM Tris–HCl pH 8, 5 mM EDTA, 5 mM EGTA, protease and phosphatase inhibitor cocktails, 1% 2-mercaptoethanol, and 0.028% n-dodecyl-β-D-maltopyranoside (Anatrace D310) by sonication using two 10 s pulses with a probe sonicator. Supernatants were collected following centrifugation at 4 °C at 20,200 × g for 10 min. A 25 μL aliquot was used in a 50 μL ^32P-ATP pan-PKC radioactive kinase assay with the pan-PKC pseudo-substrate peptide RFARKGSLRQKNV. The reaction was incubated for 10 min at 37 °C prior to filter binding and scintillation counting. Data are reported as CPM incorporation per μg of total protein in the reaction, as determined using Pierce Coomassie Plus Protein Assay of the original lysate (Pierce 23236). Where indicated, the reaction was run in the presence of increasing amounts of Cmpd 1.

[3] = 4-day pharmacokinetic study with chow dosing; type: in vivo, rat; conditions: ZSF1 obese rats, chow dosing approx. 50 mpk/day, corrected for plasma protein binding
Protocol: Three male 12-week old ZSF1 obese rats were fed control or 0.744 g/kg Cmpd 1 chow for 4 days. Food consumption was estimated by measuring food provided versus food remaining in the hopper. Blood was collected through tail vein from each animal at 9 a.m. and 4 p.m. 2 days after chow dosing started, and at 9 a.m. four days after chow dosing started, for PK determination. Plasma protein binding of Cmpd 1 was measured by equilibrium dialysis of the in vitro fraction unbound of Cmpd 1 at a concentration of […] in plasma from pooled male and female CD-1 mice. Plasma was centrifuged and supernatant was analyzed by liquid chromatography–tandem mass spectrometry to detect Cmpd 1 (York Bioanalytical Solutions; York, UK).

PKCε = biological target: T1, PKCε (Homo sapiens, UniProt Q02156); test: Z'-Lyte recombinant enzyme assay, PKCε; type: biochemical
T1 sequence (Q02156 1-737): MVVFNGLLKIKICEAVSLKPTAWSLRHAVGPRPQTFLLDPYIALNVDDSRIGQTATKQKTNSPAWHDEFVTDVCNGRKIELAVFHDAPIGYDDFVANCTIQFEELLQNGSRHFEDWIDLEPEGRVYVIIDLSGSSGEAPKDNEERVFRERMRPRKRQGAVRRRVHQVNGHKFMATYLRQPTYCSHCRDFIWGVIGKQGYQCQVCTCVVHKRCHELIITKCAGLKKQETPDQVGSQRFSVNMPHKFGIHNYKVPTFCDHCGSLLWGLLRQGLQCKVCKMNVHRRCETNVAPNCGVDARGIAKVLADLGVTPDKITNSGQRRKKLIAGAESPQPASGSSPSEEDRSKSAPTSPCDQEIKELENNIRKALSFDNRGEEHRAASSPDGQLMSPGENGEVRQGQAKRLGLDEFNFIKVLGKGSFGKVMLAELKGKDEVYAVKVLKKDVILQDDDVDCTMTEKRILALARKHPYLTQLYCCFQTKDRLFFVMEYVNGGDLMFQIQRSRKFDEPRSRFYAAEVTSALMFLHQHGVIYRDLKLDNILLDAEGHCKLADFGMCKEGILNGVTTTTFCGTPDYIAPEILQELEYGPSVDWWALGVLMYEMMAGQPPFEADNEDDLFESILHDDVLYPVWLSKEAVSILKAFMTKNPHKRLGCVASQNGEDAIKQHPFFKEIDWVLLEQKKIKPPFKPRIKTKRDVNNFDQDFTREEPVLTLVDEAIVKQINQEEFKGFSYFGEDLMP
Protocol: as §1

PKCη = PKCη (Homo sapiens, UniProt P24723); test: Z'-Lyte recombinant enzyme assay, PKCη; type: biochemical
Chain of PKCη (P24723 whole entry): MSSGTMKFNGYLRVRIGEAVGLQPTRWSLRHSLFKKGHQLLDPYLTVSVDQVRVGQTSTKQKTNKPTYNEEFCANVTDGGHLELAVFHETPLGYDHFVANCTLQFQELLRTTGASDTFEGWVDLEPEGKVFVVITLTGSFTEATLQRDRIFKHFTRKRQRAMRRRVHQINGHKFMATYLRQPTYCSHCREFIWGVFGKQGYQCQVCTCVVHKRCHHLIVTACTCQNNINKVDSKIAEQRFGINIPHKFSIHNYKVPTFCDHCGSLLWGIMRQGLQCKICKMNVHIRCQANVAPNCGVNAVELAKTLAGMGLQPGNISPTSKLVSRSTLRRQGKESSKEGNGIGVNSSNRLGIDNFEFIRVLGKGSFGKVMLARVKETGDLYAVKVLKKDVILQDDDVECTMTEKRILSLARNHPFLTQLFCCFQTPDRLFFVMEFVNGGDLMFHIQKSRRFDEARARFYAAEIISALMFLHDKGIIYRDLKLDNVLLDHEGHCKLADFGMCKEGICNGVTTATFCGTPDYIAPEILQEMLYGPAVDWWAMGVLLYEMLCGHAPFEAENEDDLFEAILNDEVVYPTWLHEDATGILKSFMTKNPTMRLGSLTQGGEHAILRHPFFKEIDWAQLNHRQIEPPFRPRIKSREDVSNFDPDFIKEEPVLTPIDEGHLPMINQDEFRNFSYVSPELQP
Protocol: as §1

PKCθ = PKCθ (Homo sapiens, UniProt Q04759); test: Z'-Lyte recombinant enzyme assay, PKCθ; type: biochemical
Chain of PKCθ (Q04759 whole entry): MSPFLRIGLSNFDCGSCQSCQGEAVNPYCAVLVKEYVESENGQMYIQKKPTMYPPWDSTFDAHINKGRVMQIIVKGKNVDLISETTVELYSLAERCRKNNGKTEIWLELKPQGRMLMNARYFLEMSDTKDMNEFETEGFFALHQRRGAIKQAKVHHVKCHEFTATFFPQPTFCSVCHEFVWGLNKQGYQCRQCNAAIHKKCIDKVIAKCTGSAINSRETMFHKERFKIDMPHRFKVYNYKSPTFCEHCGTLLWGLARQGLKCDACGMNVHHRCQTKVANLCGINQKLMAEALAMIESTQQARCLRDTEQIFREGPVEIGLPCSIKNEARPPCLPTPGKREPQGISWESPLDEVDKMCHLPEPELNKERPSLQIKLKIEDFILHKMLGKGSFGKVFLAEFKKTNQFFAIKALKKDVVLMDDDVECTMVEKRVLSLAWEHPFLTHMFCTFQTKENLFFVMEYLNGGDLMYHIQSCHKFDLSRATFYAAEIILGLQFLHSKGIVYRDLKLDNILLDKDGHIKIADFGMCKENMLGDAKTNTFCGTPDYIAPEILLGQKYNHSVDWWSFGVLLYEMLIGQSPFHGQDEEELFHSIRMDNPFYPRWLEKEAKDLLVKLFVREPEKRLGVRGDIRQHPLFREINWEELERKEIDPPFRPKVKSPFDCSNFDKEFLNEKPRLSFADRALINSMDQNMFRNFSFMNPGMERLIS
Protocol: as §1

PKCα = PKCα (Homo sapiens, UniProt P17252); test: Z'-Lyte recombinant enzyme assay, PKCα; type: biochemical
Protocol: as §1

PKC family members = test: Selectivity within PKC family (enzymatic assays); type: biochemical; conditions: PKC family members other than α, β, θ, γ
Protocol: as §1

ZSF1 obese rats = test: 7-day oral gavage study, food consumption and body weight; type: in vivo, rat; conditions: 100 mpk daily oral gavage, 7 days

- IC50 [1]: 76 nM
- IC50 [2]: 70 nM
- Free drug concentration in serum, evening ([3]; 4 p.m.): ~400 nM
- Free drug concentration in serum, morning ([3]; 9 a.m.): roughly 700 nM
- IC50 (PKCε): 623 nM
- IC50 (PKCη): 1520 nM
- IC50 (PKCθ): 28 nM
- IC50 (PKCα): 2 nM
Structure (SMILES): Cc1ncc(F)c(Nc2n[nH]c3c2CN(C(=O)N2C[C@@H](C)N(CC4CCOCC4)C[C@@H]2C)C3(C)C)n1 [Cmpd 1, 5-[(2S,5R)-2,5-dimethyl-4-(tetrahydro-2H-pyran-4-ylmethyl)piperazin-l-yl]carbonyl-N-(5-fluoro-2-methylpyrimidin-4-yl)-6,6-dimethyl-1,4,5,6-tetrahydropyrrolo[3,4-c]pyrazol-3-amine]
- Kinome selectivity (panel of 119 kinases): good selectivity
- Selectivity against all other PKC family members (PKC family members): greater than 40 fold
- Animal body weights (ZSF1 obese rats): decreased
- Food consumption (ZSF1 obese rats): decreased
